Reference: patent publication US6869913B1, “Pyridazin-3-one derivatives, their use and intermediates for their production” (Sumitomo Chemical Company, Limited, priority 1995, dated 2005)

How the values were obtained:
Format in all cases: in vivo
[1] = tested on: velvetleaf (Abutilon theophrash); assay: Test Example 3: soil surface treatment on upland fields; settings: 500 g/ha active ingredient; soil surface spray; examined after 19 days
Method: (§1) Cylindrical plastic pots of 10 cm in diameter and 10 am in depth were filled with soil, in which the seeds of […] (Ipomoea hederacea var. integriuscula) and velvetleaf (Abutilon theophrash) were sowed. Each of the test compounds listed below was formulated into an emulsifiable concentrate according to Formulation Example 2, which was diluted with water to a prescribed concentration. The dilution was uniformly sprayed over the soil surface in the pots with a sprayer at a volume of 1000 liters per hectare. After the application, the test plants were grown in a greenhouse for 19 days, and the herbicidal activity was examined.

[2] = tested on: entireleaf morningglory (Ipomoea hederacea var. integriuscula); assay: as above; settings: 500 g/ha active ingredient; soil surface spray; examined after 19 days
Method: as §1

[3] = tested on: barnyardgrass (Echinochloa oryzicola); assay: Test Example 4: flooding treatment on paddy fields; settings: application amount of active ingredient 250 g/ha, examined 19 days after application, index 0 to 5
Method: Cylindrical plastic pots of 9 cm in diameter and 11 cm in depth were filled with soil, in which the seeds of barnyardgrass (Echinochloa oryzicola) were sowed. These pots were flooded to form a paddy field, and the test plants were grown in a greenhouse for 7 days. Each of the test compounds listed below was formulated into an emulsifiable concentrate according to Formulation Example 2, which was diluted with water to a prescribed concentration. The dilution was applied to the water surface in the pots at a volume of 50 liters per hectare. After the application, the test plants were grown in the greenhouse for 19 days, and the herbicidal activity was examined.

[4] = tested on: velvetleaf (Abutilon theophrash); assay: Test Example 1: foliar treatment on upland fields; settings: 500 g/ha active ingredient; foliar spray; examined 19 days after application
Method: as §1, with “10 cm” for “10 am”, “were sowed, and the test plants were grown in a greenhouse for 19 days.” for “were sowed.”, “water containing a spreading agent” for “water”, “the foliage of” for “the soil surface in”, “the test plants” for “the pots”, “in the” for “in a”

[5] = tested on: entireleaf morningglory (Ipomoea hederacea var. integriuscula); assay: Test Example 1: foliar treatment on upland fields; settings: 500 g/ha active ingredient; foliar spray; examined 19 days after application
Method: as §1, with “10 cm” for “10 am”, “were sowed, and the test plants were grown in a greenhouse for 19 days.” for “were sowed.”, “water containing a spreading agent” for “water”, “the foliage of” for “the soil surface in”, “the test plants” for “the pots”, “in the” for “in a”

[6] = tested on: velvetleaf (Abutilon theophrash); assay: Test Example 2: foliar treatment on upland fields; set-up: key: rating; 4–5 = excellent activity, 3 or lower = insufficient; settings: 32 g/ha active ingredient; foliar spray; examined 19 days after application
Description: (§2) The herbicidal activity is excellent when rated at “4” or “5” but insufficient when rated at “3” or lower. The phytotoxicity is no problematic on practical use when rated at “0” or “1” but not allowed when rated at “2” or higher.
(§3) Cylindrical plastic pots of 10 cm in diameter and 10 cm in depth were filled with soil, in which the seeds of barnyardgrass (Echinochloa crus-galli), entireleaf morningglory (Ipomoea hederacea var. integriuscula) and velvetleaf (Abutilon theophrash) were sowed, and the test plants were grown in a greenhouse for 19 days. Each of the test compounds listed below was formulated into an emulsifiable concentrate according to Formulation Example 2, which was diluted with water containing a spreading agent to a prescribed concentration. The dilution was uniformly sprayed over the foliage of the test plants with a sprayer at a volume of 1000 liters per hectare. After the application, the test plants were grown in the greenhouse for 19 days, and the herbicidal activity was examined.

[7] = tested on: barnyardgrass (Echinochloa crus-galli); assay: Test Example 2: foliar treatment on upland fields; set-up: key: rating; 4–5 = excellent activity, 3 or lower = insufficient; settings: 32 g/ha active ingredient; foliar spray; examined 19 days after application
Description: as §2, §3

[8] = tested on: entireleaf morningglory (Ipomoea hederacea var. integriuscula); assay: Test Example 2: foliar treatment on upland fields; set-up: key: rating; 4–5 = excellent activity, 3 or lower = insufficient; settings: 32 g/ha active ingredient; foliar spray; examined 19 days after application
Description: as §2, §3

Cc1c(C(F)(F)F)cnn(-c2cc(NS(C)(=O)=O)c(Cl)cc2F)c1=O [Compound 1-367, N-[2-chloro-4-fluoro-5-(4-methyl-5-trifluoromethyl-3-pyridazinon-2-yl)phenyl]methanesulfonamide]
5: Herbicidal activity Velvetleaf [1] | Herbicidal activity Entireleaf morningglory [2] | Herbicidal activity Barnyardgrass [3] | Herbicidal activity Velvetleaf [4] | Herbicidal activity Entireleaf morningglory [5]

Cc1cc2c(-n3ncc(C(F)(F)F)c(C)c3=O)c(F)cc(Cl)c2o1 [Compound 3-139]
5: Herbicidal activity Barnyardgrass [3] | Herbicidal activity Velvetleaf [4] | Herbicidal activity Entireleaf morningglory [5]

O=c1cc(C(F)(F)F)cnn1-c1ccc(Cl)cc1 [Compound 1-332, 2-(4-chlorophenyl)-5-trifluoromethylpyridazin-3-one]
5: Herbicidal activity Velvetleaf [1] | Herbicidal activity Entireleaf morningglory [2] | Herbicidal activity Barnyardgrass [3] | Herbicidal activity Velvetleaf [4] | Herbicidal activity Entireleaf morningglory [5]

C#CCN1C(=O)COc2cc(F)c(-n3ncc(C(F)(F)F)c(C)c3=O)cc21 [Compound 2-251, 7-Fluoro-6-(4-methyl-5-trifluoromethyl-3-pyridazinon-2-yl)-4-propargyl-2H-1,4-benzoxazin-3-one]
5: Herbicidal activity Velvetleaf [1] | Herbicidal activity Entireleaf morningglory [2] | Herbicidal activity Velvetleaf [6] | Herbicidal activity Barnyardgrass [7] | Herbicidal activity Entireleaf morningglory [8] | Herbicidal activity Barnyardgrass [3] | Herbicidal activity Velvetleaf [4] | Herbicidal activity Entireleaf morningglory [5]

Cc1c(C(F)(F)F)cnn(-c2cc(O)c(Cl)cc2F)c1=O [Compound 1-391, 2-[2-fluoro-4-chloro-5-hydroxyphenyl]4-methyl-5-trifluoromethylpyridazin-3-one]
5: Herbicidal activity Velvetleaf [1] | Herbicidal activity Entireleaf morningglory [2] | Herbicidal activity Barnyardgrass [3] | Herbicidal activity Velvetleaf [4] | Herbicidal activity Entireleaf morningglory [5]

Cc1c(C(F)(F)F)cnn(-c2cc(OC(C)C)c(Cl)cc2F)c1=O [Compound 1-476, 2-[2-fluoro-4-chloro-5-isopropoxyphenyl]4-methyl-5-trifluoromethylpyridazin-3-one]
5: Herbicidal activity Velvetleaf [1] | Herbicidal activity Entireleaf morningglory [2] | Herbicidal activity Barnyardgrass [3] | Herbicidal activity Velvetleaf [4] | Herbicidal activity Entireleaf morningglory [5]

Cc1c(C(F)(F)F)cnn(-c2cc(NS(=O)(=O)CCl)c(Cl)cc2F)c1=O [Compound 1-369, N-{2-chloro-4-fluoro-5-(4-methyl-5-trifluoromethyl-3-pyridazinon-2-yl)phenyl}chloromethanesulfonamide]
5: Herbicidal activity Velvetleaf [1] | Herbicidal activity Entireleaf morningglory [2] | Herbicidal activity Velvetleaf [6] | Herbicidal activity Barnyardgrass [7] | Herbicidal activity Entireleaf morningglory [8] | Herbicidal activity Barnyardgrass [3] | Herbicidal activity Velvetleaf [4] | Herbicidal activity Entireleaf morningglory [5]

COC(=O)C(C)Sc1cc(-n2ncc(C(F)(F)F)cc2=O)c(F)cc1Cl (centres unmarked) [Compound 1-1221, Methyl 2-{2-chloro-4-fluoro-5-(5-trifluoromethyl-3-pyridazinon-2-yl)phenylthio}propionate]
5: Herbicidal activity Velvetleaf [1] | Herbicidal activity Entireleaf morningglory [2] | Herbicidal activity Velvetleaf [6] | Herbicidal activity Barnyardgrass [7] | Herbicidal activity Entireleaf morningglory [8] | Herbicidal activity Barnyardgrass [3] | Herbicidal activity Velvetleaf [4] | Herbicidal activity Entireleaf morningglory [5]

CCC(C)n1c(=O)sc2cc(F)c(-n3ncc(C(F)(F)F)c(C)c3=O)cc21 (centres unmarked) [Compound 2-328]
5: Herbicidal activity Velvetleaf [1] | Herbicidal activity Entireleaf morningglory [2] | Herbicidal activity Barnyardgrass [3] | Herbicidal activity Velvetleaf [4] | Herbicidal activity Entireleaf morningglory [5]

C#CCN1C(=O)COc2cc(F)c(-n3nc(C)c(C(F)(F)F)cc3=O)cc21 [Compound 2-821, 7-fluoro-6-(6-methyl-5-trifluoromethyl-3-pyridazinon-2-yl)-4-propargyl-2H-1,4-benzoxazin-3-one]
5: Herbicidal activity Velvetleaf [1] | Herbicidal activity Entireleaf morningglory [2] | Herbicidal activity Velvetleaf [6] | Herbicidal activity Barnyardgrass [7] | Herbicidal activity Entireleaf morningglory [8] | Herbicidal activity Barnyardgrass [3] | Herbicidal activity Velvetleaf [4] | Herbicidal activity Entireleaf morningglory [5]

Cc1c(C(F)(F)F)cnn(-c2c(F)cc(Cl)c3c2CC(C)(C)O3)c1=O [Compound 4-451]
5: Herbicidal activity Barnyardgrass [3] | Herbicidal activity Velvetleaf [4] | Herbicidal activity Entireleaf morningglory [5]

CCOC(=O)C(C)Nc1cc(-n2ncc(C(F)(F)F)c(C)c2=O)c(F)cc1Cl (centres unmarked) [Compound 1-420, Ethyl 2-{2-chloro-4-fluoro-5-(4-methyl-5-trifluoromethyl-3-pyridazinon-2-yl)phenylamino}propionate]
5: Herbicidal activity Velvetleaf [1] | Herbicidal activity Entireleaf morningglory [2] | Herbicidal activity Velvetleaf [6] | Herbicidal activity Barnyardgrass [7] | Herbicidal activity Entireleaf morningglory [8] | Herbicidal activity Barnyardgrass [3] | Herbicidal activity Velvetleaf [4] | Herbicidal activity Entireleaf morningglory [5]

COC(=O)C1(C)Cc2c(c(Cl)cc(F)c2-n2ncc(C(F)(F)F)c(C)c2=O)O1 (centres unmarked) [Compound 4-434]
5: Herbicidal activity Velvetleaf [1] | Herbicidal activity Entireleaf morningglory [2] | Herbicidal activity Velvetleaf [6] | Herbicidal activity Barnyardgrass [7] | Herbicidal activity Entireleaf morningglory [8] | Herbicidal activity Barnyardgrass [3] | Herbicidal activity Velvetleaf [4] | Herbicidal activity Entireleaf morningglory [5]

CCOC(=O)C(C)Sc1cc(-n2ncc(C(F)(F)F)cc2=O)c(F)cc1Cl (centres unmarked) [Compound 1-1222, Ethyl 2-{2-chloro-4-fluoro-5-(5-trifluoromethyl-3-pyridazinon-2-yl)phenylthio}propionate]
5: Herbicidal activity Velvetleaf [1] | Herbicidal activity Entireleaf morningglory [2] | Herbicidal activity Velvetleaf [6] | Herbicidal activity Barnyardgrass [7] | Herbicidal activity Entireleaf morningglory [8] | Herbicidal activity Barnyardgrass [3] | Herbicidal activity Velvetleaf [4] | Herbicidal activity Entireleaf morningglory [5]

Cc1c(C(F)(F)F)cnn(-c2cc(OC(C)C)c(Br)cc2F)c1=O [Compound 1-1783, 2-(4-bromo-2-fluoro-5-isopropyloxyphenyl)-4-methyl-5-trifluoromethylpyridazin-3-one]
5: Herbicidal activity Velvetleaf [1] | Herbicidal activity Entireleaf morningglory [2] | Herbicidal activity Velvetleaf [6] | Herbicidal activity Barnyardgrass [7] | Herbicidal activity Entireleaf morningglory [8] | Herbicidal activity Barnyardgrass [3] | Herbicidal activity Velvetleaf [4] | Herbicidal activity Entireleaf morningglory [5]
